From patent US20050020662A1, “Inhibition of PKC to treat permability failure” (Joslin Diabetes Center, Inc., a Massachusetts corporation, priority 1999, published 2005)

System: PKC
Assay: PKC activity of primary human mesothelial cells
Type: cell-based
Conditions: human mesothelial cells exposed to vitamin E, low or high (150 mM) glucose, presence or absence of PMA (FIG. 2)
Method: The PKC activity was determined in the presence or absence or PMA, an activator of PKC. […] The mesothelial cells were exposed to low or high (150 mM) levels of glucose in the presence or absence of PMA, an activator of PKC, and the presence or absence of vitamin E, a PKC inhibitor. […] The PKC activity was determined in the presence or absence or PMA, an activator of PKC. […] These concentrations of glucose are standard for dialysis. […] It has been reported that activation of these pathways increases fibrosis. […] Therefore, inhibition of PKC can decrease fibrosis and reduce or prevent permeability failure of the peritoneal membrane.

With vitamin E the PKC activity was “decrease of PKC activity”.
